Data as given in patent US5519008A, “Derivatives of triterpenoid acids as inhibitors of cell-adhesion molecules ELAM-1 (E-selectin) and LECAM-1 (L-selectin)” (Glycomed Incorporated, priority 1992, dated 1996).

Columns and labels:
[1] = system: arachidonic acid (AA), murine skin inflammation; assay: arachidonic acid (AA) murine skin (ear) inflammation model; assay type: in vivo; details: 10 μl of 100mg/ml solution applied to the ear immediately after AA; 6mm ear disk weighed 90 minutes later; average of 6 experiments
Description: For comparison, glycyrrhetinic acid was also tested. […] 10 μl of each compound was applied to the ear. […] 90 minutes later a 6mm disk of each ear was removed, and weighed. […] The results were the average of 6 experiments.

[2] = literature statement, Baren et al., J. Med. Chem. 17(2) (1974) 184-191; cited from earlier work

Compound	reduction of the % maximal inflammatory response caused by AA alone [1]	aldosterone (DCA)-like activity [2]
3β-O-(α-L-fucopyranosyl)-18β-olean-12-en-30-oic Acid [3-0-fucoside-18-β glycyrrhetinic acid]	about 60%	–
CC1(C)[C@@H](O)CC[C@]2(C)[C@H]3CC=C4[C@@H]5C[C@@](C)(C(=O)O)CC[C@]5(C)CC[C@@]4(C)[C@]3(C)CC[C@@H]12 [11-deoxoglycyrrhetinic acid]	–	does not substantially show the DCA activity
CC1(C)[C@@H](O)CC[C@]2(C)[C@H]3C(=O)C=C4[C@@H]5C[C@@](C)(C(=O)O)CC[C@]5(C)CC[C@@]4(C)[C@]3(C)CC[C@@H]12 [glycyrrhetinic acid]	about 60%	–
